system: Plasmodium falciparum; assay: Antimalarial activity against Plasmodium falciparum Dd2 incubated for 72 hrs by SYBR green dye based assay; assay type: functional, organism-based; conditions: Dd2, 72 h

`Cc1ccc([C@H]2N[C@H](C(=O)O)Cc3c2[nH]c2ccccc32)c(Cl)c1` and `O=C(O)[C@@H]1Cc2c([nH]c3ccccc23)[C@@H](c2ccc(Br)cc2Cl)N1` are within 1.5-fold of each other in EC50: 410 nM for the first, 320 nM for the second.

`Cc1ccc([C@H]2N[C@H](C(=O)O)Cc3c2[nH]c2ccccc32)c(C)c1` and `Cn1c2c(c3ccccc31)C[C@@H](C(=O)O)N[C@@H]2c1ccc(Cl)cc1Cl` are within 1.5-fold of each other in EC50: 10000 nM for the first, 8000 nM for the second.

`O=C(O)[C@@H]1Cc2c([nH]c3ccccc23)[C@]2(CCc3ccccc32)N1` and `C[C@]1(c2ccccc2Cl)N[C@H](C(=O)O)Cc2c1[nH]c1ccccc21` cannot be ordered by EC50: > 10000 nM for the first, > 10000 nM for the second.

`C[C@]1(c2ccc(Cl)cc2Cl)N[C@H](C(=O)O)Cc2c1[nH]c1ccccc21` and `C[C@]1(c2ccc(Cl)cc2)N[C@H](C(=O)O)Cc2c1[nH]c1ccccc21` cannot be ordered by EC50: > 10000 nM for the first, > 10000 nM for the second.

`O=C(O)[C@@H]1Cc2c([nH]c3ccccc23)CN1Cc1ccc(Cl)cc1Cl` and `C[C@@]1(C(=O)O)Cc2c([nH]c3ccccc23)[C@@H](c2ccc(Cl)cc2Cl)N1` (racemic) cannot be ordered by EC50: > 10000 nM for the first, > 10000 nM for the second.

`C[C@]1(c2ccccc2)N[C@H](C(=O)O)Cc2c1[nH]c1ccccc21` and `O=C(O)[C@H](Cc1c[nH]c2ccccc12)NCc1ccc(Cl)cc1Cl` cannot be ordered by EC50: > 10000 nM for the first, > 10000 nM for the second.

system: Plasmodium falciparum; assay: Antimalarial activity against Plasmodium falciparum Dd2 at 10 uM incubated for 72 hrs by SYBR green dye based assay relative to control; assay type: functional; conditions: not given

Work on `CN1[C@H](c2ccc(Cl)cc2Cl)c2[nH]c3ccccc3c2C[C@H]1C(=O)O` yielded an inhibition at 10 µM of 65%.

system: not listed separately; assay: Inhibition of Plasmodium falciparum IspD; conditions: not given

Compared with `O=C(O)[C@@H]1Cc2c([nH]c3ccccc23)[C@@H](c2ccccc2)N1`, `O=C(O)[C@@H]1Cc2c([nH]c3ccccc23)[C@@H](c2ccccc2Cl)N1` is lower in IC50: > 5000 nM for the first, 1000 nM for the second. The second is the more potent here.

Going from `O=C(O)[C@@H]1Cc2c([nH]c3ccccc23)[C@@H](c2ccc(Cl)cc2)N1` to `Cc1cc(Cl)ccc1[C@H]1N[C@H](C(=O)O)Cc2c1[nH]c1ccccc21`, the IC50 falls from 510 nM to 260 nM (2-fold).

First: Cc1ccc([C@H]2N[C@H](C(=O)O)Cc3c2[nH]c2ccccc32)c(Cl)c1
Second: O=C(O)[C@@H]1Cc2c([nH]c3ccccc23)[C@@H](c2ccc(Br)cc2Cl)N1
The IC50 of the first is 2.4-fold higher: 82 nM for the first, 34 nM for the second. The second is the more potent here.

Work on `Cc1ccc([C@H]2N[C@H](C(=O)O)Cc3c2[nH]c2ccccc32)c(C)c1` yielded an IC50 of 1000 nM.

Source: ChEMBL document CHEMBL4699488, “Probing the B- & C-rings of the antimalarial tetrahydro-β-carboline MMV008138 for steric and conformational constraints” (Bioorg Med Chem Lett, 2020)
